Results published in patent US8026218B2, “Bifunctional analgesic compounds for opioid receptor agonists and neurokinin-1 receptor antagonists” (The University of Arizona, priority 2006, dated 2011).
Like-named read-outs stand apart in the source and are kept apart here. Peptide text beside a SMILES is read from it.

Legend:
[1] = target: T1, rat NK1 (rNK1) receptor (Rattus norvegicus, UniProt P14600); test: Radioligand competition binding, [3H]substance P, rNK1/CHO membranes; details: for IC50: LogIC50, rNK1, [3H]Substance P, logarithm of IC50 (negative), CHO cell membranes
T1 construct: expressed in transfected cells; host or cells: CHO (rNK-1/CHO cell line from Dr. James Krause)
T1 sequence (P14600 whole entry): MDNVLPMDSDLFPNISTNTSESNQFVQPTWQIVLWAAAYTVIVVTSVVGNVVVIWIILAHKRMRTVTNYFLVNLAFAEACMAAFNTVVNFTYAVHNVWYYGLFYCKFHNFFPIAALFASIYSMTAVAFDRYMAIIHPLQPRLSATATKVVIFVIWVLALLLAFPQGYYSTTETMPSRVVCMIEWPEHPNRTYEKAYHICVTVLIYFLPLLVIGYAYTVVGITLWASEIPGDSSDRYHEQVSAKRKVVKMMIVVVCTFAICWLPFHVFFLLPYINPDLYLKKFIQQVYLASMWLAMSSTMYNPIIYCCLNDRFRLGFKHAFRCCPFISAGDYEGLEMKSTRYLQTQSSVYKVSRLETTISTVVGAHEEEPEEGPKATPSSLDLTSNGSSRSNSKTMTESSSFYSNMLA

[2] = target: T2, human NK1 receptor (hNK1) (Homo sapiens, UniProt P25103); test: Radioligand competition binding, [3H]-Substance P, hNK1
T2 construct: expressed in transfected cells
T2 sequence (P25103 whole entry): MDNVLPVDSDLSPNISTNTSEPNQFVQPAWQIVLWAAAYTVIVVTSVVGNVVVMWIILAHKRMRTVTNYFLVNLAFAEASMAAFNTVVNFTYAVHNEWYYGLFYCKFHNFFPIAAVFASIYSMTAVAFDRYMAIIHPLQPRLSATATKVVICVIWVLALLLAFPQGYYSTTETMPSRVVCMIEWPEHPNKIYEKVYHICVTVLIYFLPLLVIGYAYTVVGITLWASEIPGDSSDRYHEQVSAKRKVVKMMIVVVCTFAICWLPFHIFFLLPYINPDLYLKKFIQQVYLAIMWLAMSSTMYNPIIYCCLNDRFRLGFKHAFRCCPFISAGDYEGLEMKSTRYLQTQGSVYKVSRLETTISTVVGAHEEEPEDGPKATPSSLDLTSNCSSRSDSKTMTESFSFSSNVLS

[3] = Octanol/saline distribution (logD7.4); assay type: physicochemical; details: 0.05 N HEPES buffer in 0.1 N NaCl
Description: HEPES buffer (0.05 M HEPES buffer in 0.1 M NaCl, pH 7.4, 500 μL) was added to 2 mg of compound and mixed with 500 μL of 1-octanol. The sample was shaken at r.t. for 12 h to allow equilibrating. The sample was centrifuged at 6500 rpm in a VanGuard V6500 (GlaxoSmithKline, Research Triangle Park, N.C.) for 15 min. The layers were separated and each layer was centrifuged once again. The compound concentrations of obtained layers were analyzed by HPLC (30-70% of acetonitrile containing 0.1% TFA within 20 min and up to 95% within additional 5 min, 1 mL/min, 230 nm, Vydac 218TP104 C-18 column). The logarithm of 1-octanol/saline distribution (logD7.4) was calculated as the ratio of compound concentration in the 1-octanol and saline phases.
Octanol/saline distribution (logD7.4) (Yamamoto, 2007, J. Med. Chem., submitted). HEPES buffer (0.05 M HEPES buffer in 0.1 M NaCl, pH 7.4, 500 μL) was added to 2 mg of compound and mixed with 500 μL of 1-octanol. The sample was shaken at r.t. for 12 h to allow equilibrating. The sample was centrifuged at 6500 rpm in a VanGuard V6500 (GlaxoSmithKline, Research Triangle Park, N.C.) for 15 min. The layers were separated and each layer was centrifuged once again. The compound concentrations in the obtained layers were analyzed by HPLC (30-70% of acetonitrile containing 0.1% TFA within 20 min and up to 95% within additional 5 min, 1 mL/min, 230 nm, Vydac 218TP104 C-18 column). The logarithm of 1-octanol/saline distribution (logD7.4) was calculated as the ratio of compound concentration in the 1-octanol and saline phases.

[4] = target: T3, human δ opioid receptors (hDOR) (Homo sapiens, UniProt P41143); test: Radioligand competition binding, [3H]DPDPE, hDOR membranes
T3 construct: expressed in transfected cells; host or cells: HN9.10 neuroblastoma cell line, pCDNA3, neomycin-selected clones
T3 sequence (P41143 whole entry): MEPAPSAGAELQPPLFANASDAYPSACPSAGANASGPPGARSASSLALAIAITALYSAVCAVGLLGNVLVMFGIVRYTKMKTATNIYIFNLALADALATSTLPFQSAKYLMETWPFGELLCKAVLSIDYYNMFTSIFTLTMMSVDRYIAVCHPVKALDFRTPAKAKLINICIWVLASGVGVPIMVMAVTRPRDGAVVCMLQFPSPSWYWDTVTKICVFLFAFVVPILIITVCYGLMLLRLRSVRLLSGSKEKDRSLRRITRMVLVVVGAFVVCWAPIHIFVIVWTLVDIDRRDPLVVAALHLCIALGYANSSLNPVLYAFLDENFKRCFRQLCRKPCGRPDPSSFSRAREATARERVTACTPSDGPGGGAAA

[5] = target: T4, rat μ opioid receptors (rMOR) (Rattus norvegicus, UniProt P33535); test: Radioligand competition binding, [3H]DAMGO, rMOR membranes
T4 construct: expressed in transfected cells; host or cells: HN9.10 neuroblastoma cell line, pCDNA3, neomycin-selected clones
T4 sequence (P33535 whole entry): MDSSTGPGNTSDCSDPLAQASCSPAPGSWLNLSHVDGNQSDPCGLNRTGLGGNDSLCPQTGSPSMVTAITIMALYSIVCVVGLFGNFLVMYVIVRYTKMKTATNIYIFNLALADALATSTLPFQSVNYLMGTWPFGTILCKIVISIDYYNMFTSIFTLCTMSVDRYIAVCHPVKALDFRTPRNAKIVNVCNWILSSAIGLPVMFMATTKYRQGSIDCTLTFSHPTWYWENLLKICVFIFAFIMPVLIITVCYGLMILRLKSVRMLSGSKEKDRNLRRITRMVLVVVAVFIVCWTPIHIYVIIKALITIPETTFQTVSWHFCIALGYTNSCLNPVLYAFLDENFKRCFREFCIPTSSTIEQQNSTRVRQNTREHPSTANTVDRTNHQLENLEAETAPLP

[6] = target: T3, human δ opioid receptors (hDOR); test: [35S]GTP-γ-S binding assay, hDOR; assay type: biochemical
[7] = target: T4, rat μ opioid receptors (rMOR); test: biochemical; assay type: biochemical
[8] = target: T5, δ opioid receptors (MVD) (Mus musculus, UniProt P32300); test: Mouse isolated vas deferens (MVD) assay, opioid agonist
T5 construct: from tissue; host or cells: mouse (ICR) isolated vas deferens
T5 sequence (P32300 whole entry): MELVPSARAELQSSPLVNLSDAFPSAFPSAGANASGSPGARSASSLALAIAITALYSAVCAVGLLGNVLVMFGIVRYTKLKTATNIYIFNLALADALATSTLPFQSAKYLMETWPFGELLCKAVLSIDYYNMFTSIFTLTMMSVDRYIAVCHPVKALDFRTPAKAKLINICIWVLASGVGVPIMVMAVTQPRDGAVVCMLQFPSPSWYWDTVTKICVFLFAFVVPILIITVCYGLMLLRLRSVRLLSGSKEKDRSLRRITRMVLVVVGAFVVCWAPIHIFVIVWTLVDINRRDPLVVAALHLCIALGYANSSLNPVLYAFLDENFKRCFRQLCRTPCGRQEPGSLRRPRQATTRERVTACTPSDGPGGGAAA

[9] = tested on: μ opioid receptors (GPI); test: Guinea pig isolated ileum (GPI) assay, opioid agonist;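 further: inhibition of electrically evoked contractions (0.1 Hz, 0.4 msec, supramaximal voltage) in organ baths at 37 °C, contraction height 3 min after each cumulative dose versus the 1 min before dosing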
[10] = target: T6, Substance P receptors (guinea pig NK1) (Cavia porcellus, UniProt P30547); test: Guinea pig isolated ileum (GPI) assay with substance P stimulation in presence of 1 μM naloxone
T6 construct: from tissue; host or cells: guinea pig (Hartley) ileum LMMP, 1 μM naloxone present
T6 sequence (P30547 whole entry): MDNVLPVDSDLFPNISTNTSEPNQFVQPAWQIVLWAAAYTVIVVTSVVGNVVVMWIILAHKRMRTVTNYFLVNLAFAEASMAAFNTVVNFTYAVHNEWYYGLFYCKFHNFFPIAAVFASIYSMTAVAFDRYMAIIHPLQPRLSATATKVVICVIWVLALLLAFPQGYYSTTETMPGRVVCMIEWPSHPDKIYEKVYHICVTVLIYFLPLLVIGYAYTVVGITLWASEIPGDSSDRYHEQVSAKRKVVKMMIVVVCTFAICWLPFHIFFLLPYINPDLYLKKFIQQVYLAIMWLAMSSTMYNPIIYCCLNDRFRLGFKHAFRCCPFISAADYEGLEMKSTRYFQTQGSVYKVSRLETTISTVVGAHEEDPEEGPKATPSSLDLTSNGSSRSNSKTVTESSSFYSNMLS
Description: Testing stopped at 1 mM concentrations of the test compound.
Analysis of GPI and MVD assays. For opioid data analysis, percentage inhibition was calculated using the average tissue contraction height for 1 min preceding the addition of the agonist divided by the contraction height 3 min after exposure to the dose of agonist. […] IC50 and Emax estimates were determined by computerized nonlinear least-squares analysis (the pharmacological statistics package FlashCalc: Dr. Michael Ossipov, University of Arizona, Tucson, Ariz.). […] A50 values represent the mean of not less than 4 tissues. A50 and Emax estimates were determined by computerized nonlinear least-squares analysis (FlashCalc).

[11] = In vitro stability in rat plasma at 37° C.; assay type: in vitro ADME; details: rat, rat plasma, read-out: half life (T1/2) in rat plasma (converted)
Description: The derivative compounds were tested for their metabolite stability. The compounds were incubated in rat plasma at 37° C., and aliquots were withdrawn at various time points and analyzed by HPLC to determine the concentration of remaining compound derivatives (FIGS. 15-16, 36, and 47-48).
In Vitro Stability of compound derivatives in Rat Plasm (Yamamoto, 2007, J. Am. Chem. Soc. submitted). Stock solution of compounds (50 mg/mL in DMSO) were diluted 1000-fold into rat plasma (Lot 24927, Pel-Freez Biologicals, Rogers, Ak.) to result in an incubation concentration of 50 μg/mL. All samples were incubated at 37° C. for 6 h, and 200 μL of aliquots were withdrawn at 1 h, 2 h, 4 h and 6 h. […] The samples were run in triplicate. Discussion.

[12] = Table 39, read-out: Affinity rNK1 (Ki; nM)
[13] = Table 39, read-out: GTP binding hDOR EC50
[14] = Table 39, read-out: GTP binding hDOR Emax
[15] = electrically stimulated isolated tissue, read-out: MVD (δ), IC50

CC(C)C[C@H](NC(=O)[C@@H]1CCCN1C(=O)[C@H](Cc1ccccc1)NC(=O)CNC(=O)[C@@H](C)NC(=O)[C@@H](N)Cc1ccc(O)cc1)C(=O)N[C@@H](Cc1c[nH]c2ccccc12)C(=O)N(C)Cc1ccccc1 [TY010, H-Tyr-D-Ala-Gly-Phe-Pro-Leu-Trp-NMe-Bzl]
inhibition at 1 µM ([1]; read-out: Inhibition % at 1 μM, rNK1, [3H]Substance P): 33 ± 7.6% | IC50 [2]: 3.16 nM | Ki [2]: 100 nM | Ki ([2]; read-out: Ki, hNK1): 1.6 nM | logD7.4 [3]: 3.5

CCCC[C@@H]1NC(=O)[C@H](Cc2ccccc2)NC(=O)CNC(=O)[C@H](NC(=O)[C@@H](N)Cc2ccc(O)cc2)CSSC[C@H](C(=O)N[C@@H](Cc2c[nH]c3ccccc23)C(=O)NCc2cc(C(F)(F)F)cc(C(F)(F)F)c2)NC(=O)[C@@H]2CCCN2C1=O [TY038, [D-Cys^2, D-Cys^7]TY027] (HELM PEPTIDE1{Y.[dC].G.F.[Nle].P.[dC].W.[FC(F)(F)c1cc(CN[*:1])cc(C(F)(F)F)c1]}$PEPTIDE1,PEPTIDE1,2:R3-7:R3$$$V2.0; N-terminus assumed)
IC50 [4]: 126 nM | Ki [4]: 55.5 nM | IC50 [5]: 1.58 nM | Ki [5]: 156 nM | Ki(μ)/Ki(δ) ([5]; Table 20, ratio rMOR Ki / hDOR Ki): 2.9 | Ki ([5]; read-out: Ki, rMOR, [3H]DAMGO): 160 nM | IC50 ([1]; Table 20): 20 nM | Ki(hNK1)/Ki(rNK1) ([1]; Table 20, species ratio): 28 | Ki [1, 12]: 7.11 nM | Ki ([1]; read-out: Ki, rNK1): 7.1 nM | IC50 [2]: 0.501 nM | Ki [2]: 0.24 nM | Ki ([2]; read-out: Ki, hNK1): 0.25 nM | Emax ([6]; Table 21, net total bound/basal binding × 100, read-out: Emax (%), hDOR): 87% | EC50 [6, 13]: 14 nM | Emax [6, 14]: 87% | Emax ([6]; net total bound/basal binding × 100, read-out: Emax, hDOR, [35S]GTP-γ-S binding): 87% | EC50 ([7]; LogEC50, rMOR): 20 nM | Emax ([7]; read-out: Emax (%), rMOR): 12% | Emax ([7]; read-out: Emax, rMOR, [35S]GTP-γ-S binding): < 20% | EC50 ([7]; read-out: GTP binding rMOR EC50): 21.7 nM | Emax ([7]; read-out: GTP binding rMOR Emax): 11% | IC50 ([8]; Table 39, read-out: MVD opioid(delta) agonist (IC50; nM)): 18.9 nM | IC50 [8, 15]: 19 nM | Opioid agonist GPI (μ), % inh. ([9]; Table 22, at 1 uM, no antagonist activity observed at the tested concentration): 3% inh. at 1 uM^d | GPI/LMMP opioid(mu) Antagonist ([9]; Table 39): none | GPI/LMMP opioid(mu) agonist, % at 1 uM ([9]; Table 39, at 1 uM): 3% at | agonist effect in the functional assay using GPI ([9]; at the concentration of 1 μM, words): nearly no agonist effect | Kb ([10]; Substance P antagonist, GPI, Ke (nM), Table 22, in the presence of 1 μM naloxone): 12 ± 1.4 nM | GPI/LMMP SP Agonist (IC50; nM) ([10]; Table 39, at 100 nM): none | half-life at 50 μg/mL [11]: > 6 h

CC(C)C[C@H](NC(=O)[C@@H]1CCCN1C(=O)[C@H](Cc1ccccc1)NC(=O)CNC(=O)[C@@H](C)NC(=O)[C@@H](N)Cc1ccc(O)cc1)C(=O)N[C@@H](Cc1c[nH]c2ccccc12)C(=O)N(C)Cc1cc(C(F)(F)F)cc(C(F)(F)F)c1 [TY013, H-Tyr-D-Ala-Gly-Phe-Pro-Leu-Trp-NMe-3,5-Bzl(CF3)2]
IC50 ([1]; Table 6): 20 nM | IC50 [2]: 3.16 nM | Ki [2]: 6.1 nM | Ki ([2]; Table 39, read-out: Affinity hNK1 (Ki; nM)): 1.4 nM | Ki ([2]; read-out: Ki (nM), hNK1, [3H]Substance P, Table 6, CHO cell membranes): 1.4 nM | logD7.4 [3]: >4

CC(C)C[C@H](NC(=O)[C@@H]1CCCN1C(=O)[C@H]1CSSC[C@@H](NC(=O)[C@@H](N)Cc2ccc(O)cc2)C(=O)NCC(=O)N[C@@H](Cc2ccccc2)C(=O)N1)C(=O)N[C@@H](Cc1c[nH]c2ccccc12)C(=O)NCc1cc(C(F)(F)F)cc(C(F)(F)F)c1 [TY037, [D-Cys^2, D-Cys^5]TY027]
IC50 [4]: 15.8 nM | Ki ([4]; Table 39, read-out: Affinity hDOR (Ki; nM)): 7.8 nM | Ki ([4]; read-out: Ki (nM), hDOR, [3H]DPDPE, Table 20, HN9.10 cell membranes): 7.8 nM | IC50 [5]: 126 nM | Ki ([5]; read-out: Ki, rMOR, [3H]DAMGO): 52 nM | IC50 ([1]; Table 20): 126 nM | Ki [1, 12]: 45.5 nM | EC50 ([6]; Table 21, HN9.10 cell, read-out: EC50 (nM), hDOR): 14 nM | EC50 [6, 13]: 98.2 nM | Emax [6, 14]: 26% | Emax ([7]; Table 21, net total bound/basal binding × 100, read-out: Emax (%), rMOR): 12% | EC50 ([7]; Table 39, read-out: GTP binding rMOR EC50): 52.9 nM | Emax ([7]; Table 39, read-out: GTP binding rMOR Emax): 8% | Emax ([7]; net total bound/basal binding × 100, read-out: Emax, rMOR, [35S]GTP-γ-S binding): < 20% | IC50 [8, 15]: 8.3 nM | IC50 ([9]; Table 39, read-out: GPI/LMMP opioid(mu) agonist (IC50; nM)): 284 nM | IC50 ([9]; electrically stimulated isolated tissue, read-out: GPI (μ), IC50): 280 nM | Substance P antagonist, GPI, Ke ([10]; in the presence of 1 μM naloxone): 4.7 nM | half-life at 50 μg/mL [11]: 3.7 h
